What was measured:
p-Akt3 in WM115 cells = target: T1, p-Akt3 in WM115 cells (Homo sapiens, UniProt Q9Y243); experiment: Phospho-Akt cellular SureFire assay, p-Akt3 in WM115 cells; assay type: cell-based; details: insulin stimulated, read-out: Biological Assay 2 IC50 (nM) Akt3 WM115
T1 construct: SureFire assays to detect cellular p-Akt1, p-Akt2 and p-Akt3 levels in WM115 cells (Akt2/3) and LNCaP cells (Akt1); endogenous in cells; host or cells: WM115 (ECACC 91061232), insulin-stimulated
Outline: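 pThr308-Akt3 in lysates was quantified by bead-proximity SureFire detection, pairing a phospho-specific antibody with a total Akt3 antibody. Before lysis, WM115 cells in 0.1% FBS medium were treated for 15 min at 37 °C with compound (final DMSO 0.3%), following a 10 min stimulation with 100 nM insulin. IC50 was obtained by 4-parameter fitting.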

Akt2 = target: T2, Akt2 (Homo sapiens, UniProt P31751); experiment: Akt activation assay (PDK1-mediated activation, LANCE Ultra crosstide TR-FRET), Akt2; assay type: biochemical; details: read-out: Biological Assay 1 IC50 (nM) Akt2
T2 construct: unspecified tag, removed (detagged) (cleaved yes); purchased SignalChem and Proteros (Akt2); Merck Millipore (PDK1) 14-452 (PDK1); none given for Akt2
T2 sequence (P31751 whole entry): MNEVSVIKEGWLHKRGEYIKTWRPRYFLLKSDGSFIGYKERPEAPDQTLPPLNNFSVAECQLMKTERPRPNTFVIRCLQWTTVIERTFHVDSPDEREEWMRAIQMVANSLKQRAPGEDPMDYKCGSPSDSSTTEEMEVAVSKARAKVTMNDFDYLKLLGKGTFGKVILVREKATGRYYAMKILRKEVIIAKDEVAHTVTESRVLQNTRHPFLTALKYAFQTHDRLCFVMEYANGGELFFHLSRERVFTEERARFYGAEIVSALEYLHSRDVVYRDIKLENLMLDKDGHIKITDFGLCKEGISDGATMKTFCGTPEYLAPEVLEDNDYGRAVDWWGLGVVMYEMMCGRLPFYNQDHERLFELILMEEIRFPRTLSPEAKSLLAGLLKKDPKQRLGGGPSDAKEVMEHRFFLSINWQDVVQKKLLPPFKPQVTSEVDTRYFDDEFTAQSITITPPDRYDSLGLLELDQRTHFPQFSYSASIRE
Outline: (§1)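 Two-step cascade format: Akt1, Akt2 or Akt3 phosphorylates Ulight-crosstide (100 nM) only after activation by 5 nM PDK1 in presence of PtdIns(3,4,5)P3 vesicles and 100 μM ATP. Product quantified by Eu-antibody TR-FRET after 30 min reaction.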

p-Akt2 in WM115 cells = target: T3, p-Akt2 in WM115 cells (Homo sapiens, UniProt P31751); experiment: Phospho-Akt cellular SureFire assay, p-Akt2 in WM115 cells; assay type: cell-based; details: insulin stimulated, read-out: Biological Assay 2 IC50 (nM) Akt2 WM115
T3 construct: SureFire assays to detect cellular p-Akt1, p-Akt2 and p-Akt3 levels in WM115 cells (Akt2/3) and LNCaP cells (Akt1); endogenous in cells; host or cells: WM115 (ECACC 91061232), insulin-stimulated
T3 sequence (P31751 whole entry): as above
Outline: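 Readout is a bead-proximity SureFire assay pairing a pThr308 Akt antibody with a total Akt2 antibody, lysate and beads incubated 2 h plus 2 h at room temperature in the dark. Before lysis, serum-starved WM115 cells received 100 nM insulin (10 min), then test compound (15 min, 0.3% DMSO); IC50 by 4-parameter equation.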

Akt1 = target: T4, Akt1 (Homo sapiens, UniProt P31749); experiment: Akt activation assay (PDK1-mediated activation, LANCE Ultra crosstide TR-FRET), Akt1; assay type: biochemical; details: read-out: Biological Assay 1 IC50 (nM) Akt1
T4 construct: unspecified tag, removed (detagged) (cleaved yes); purchased SignalChem and Proteros (Akt1); Merck Millipore (PDK1) 14-452 (PDK1); none given for Akt1
T4 sequence (P31749 whole entry): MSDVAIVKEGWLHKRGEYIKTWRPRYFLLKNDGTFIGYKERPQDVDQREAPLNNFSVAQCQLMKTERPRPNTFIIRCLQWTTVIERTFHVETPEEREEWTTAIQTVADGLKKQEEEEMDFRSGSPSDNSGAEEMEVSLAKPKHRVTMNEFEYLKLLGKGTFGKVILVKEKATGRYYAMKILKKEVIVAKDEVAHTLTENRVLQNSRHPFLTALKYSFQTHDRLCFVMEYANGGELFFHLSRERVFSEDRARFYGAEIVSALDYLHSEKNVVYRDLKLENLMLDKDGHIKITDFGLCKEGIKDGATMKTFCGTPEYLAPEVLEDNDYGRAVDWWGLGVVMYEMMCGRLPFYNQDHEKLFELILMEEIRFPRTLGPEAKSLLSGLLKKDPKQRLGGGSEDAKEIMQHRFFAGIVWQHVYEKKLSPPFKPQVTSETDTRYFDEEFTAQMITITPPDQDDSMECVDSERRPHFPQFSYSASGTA
Outline: as §1

Akt3 = target: T5, Akt3 (Homo sapiens, UniProt Q9Y243); experiment: Akt activation assay (PDK1-mediated activation, LANCE Ultra crosstide TR-FRET), Akt3; assay type: biochemical; details: read-out: Biological Assay 1 IC50 (nM) Akt3
T5 construct: unspecified tag, removed (detagged) (cleaved yes); purchased SignalChem and Proteros (Akt3); Merck Millipore (PDK1) 14-452 (PDK1); none given for Akt3
T5 sequence (Q9Y243 whole entry): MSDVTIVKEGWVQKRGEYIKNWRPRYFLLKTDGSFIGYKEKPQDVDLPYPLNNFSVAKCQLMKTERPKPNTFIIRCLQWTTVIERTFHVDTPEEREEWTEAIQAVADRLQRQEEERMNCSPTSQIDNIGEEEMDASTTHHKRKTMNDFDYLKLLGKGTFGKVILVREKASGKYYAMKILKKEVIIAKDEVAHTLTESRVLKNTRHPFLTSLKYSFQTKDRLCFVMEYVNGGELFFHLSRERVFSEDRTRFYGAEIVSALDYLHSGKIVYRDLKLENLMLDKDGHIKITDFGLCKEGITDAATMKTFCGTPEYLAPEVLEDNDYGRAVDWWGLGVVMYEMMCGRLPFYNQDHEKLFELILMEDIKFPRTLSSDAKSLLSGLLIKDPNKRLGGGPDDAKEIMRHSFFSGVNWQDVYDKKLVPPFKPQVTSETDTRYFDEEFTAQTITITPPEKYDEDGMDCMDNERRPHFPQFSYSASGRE
Outline: as §1

p-Akt1 in LNCaP cells = target: T6, p-Akt1 in LNCaP cells (Homo sapiens, UniProt P31749); experiment: Phospho-Akt cellular SureFire assay, p-Akt1 in LNCaP cells; assay type: cell-based; details: read-out: Biological Assay 2 IC50 (nM) Akt1 LNCaP
T6 construct: SureFire assays to detect cellular p-Akt1, p-Akt2 and p-Akt3 levels in WM115 cells (Akt2/3) and LNCaP cells (Akt1); endogenous in cells; host or cells: LNCaP (ECACC 89110211)
T6 sequence (P31749 whole entry): as the sequence (P31749 whole entry) above
Outline: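 Phospho-Thr308 Akt1 detected by AlphaScreen SureFire proximity beads in LNCaP lysates after 15 min compound treatment at 37 °C in 0.1% FBS medium, unstimulated, 0.3% DMSO. Cells plated at 5×10^4/well overnight; IC50 from a 4-parameter equation.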

T1 sequence (Q9Y243 whole entry): as the sequence (Q9Y243 whole entry) above

Row | Compound | IC50 (p-Akt3 in WM115 cells) [nM] | IC50 (Akt2) [nM] | IC50 (p-Akt2 in WM115 cells) [nM] | IC50 (Akt1) [nM] | IC50 (Akt3) [nM] | IC50 (p-Akt1 in LNCaP cells) [nM]
1 | CCC(=O)N(C(C)C)[C@H]1CC[C@H](CC(=O)Nc2cc(-c3ccccc3)c(-c3ccc([C@]4(N)C[C@](C)(O)C4)cc3)nn2)CC1 [Example 104, N-(trans-4-(2-((6-(4-(trans-1-amino-3-hydroxy-3-methylcyclobutyl)phenyl)-5-phenylpyridazin-3-yl)amino)-2-oxoethyl)cyclohexyl)-N-isopropylpropionamide] | 27 | 120 | 1300 | 3200 | 10 | 1900
2 | CC(=O)N(C)[C@H]1CC[C@H](CC(=O)Nc2cc(-c3ccsc3)c(-c3ccc(C4(N)CCC4)cc3)cn2)CC1 [Example A64, N-(5-(4-(1-aminocyclobutyl)phenyl)-4-(thiophen-3-yl)pyridin-2-yl)-2-(trans-4-(N-methylacetamido)cyclohexyl)acetamide] | 85 | 1400 | 1400 | > 30000 | 30 | > 30000
3 | CCC(=O)N(CC)[C@H]1CC[C@H](CC(=O)Nc2cc(-c3ccccc3)c(-c3ccc([C@]4(N)C[C@](C)(O)C4)cc3)nn2)CC1 [Example 113, N-(trans-4-(2-((6-(4-(trans-1-amino-3-hydroxy-3-methylcyclobutyl)phen)-5-phenylpyridazin-3-yl)amino)-2-oxoethyl)cyclohexyl)-N-ethylpropionamide] | 7 | 130 | 510 | > 14000 | 8 | 4100
4 | NC1(c2ccc(-c3nnc(NC(=O)C[C@H]4CC[C@H](N5CCOC5=O)CC4)cc3-c3ccccc3)cc2)CCC1 [Example 66, N-(6-(4-(1-aminocyclobutyl)phenyl)-5-phenylpyridazin-3-yl)-2-(trans-4-(2-oxooxazolidin-3-yl)cyclohexyl)acetamide] | 48 | 150 | 940 | 7200 | 5 | 9800
5 | CC(=O)N(C(C)C)[C@H]1CC[C@H](CC(=O)Nc2cc(-c3ccccc3)c(-c3ccc([C@]4(N)C[C@](C)(O)C4)cc3)cn2)CC1 [Example 102, N-(5-(4-(trans-1-amino-3-hydroxy-3-methylcyclobutyl)phenyl)-4-phenylpyridin-2-yl)-2-(trans-4-(N-isopropylacetamido)cyclohexyl)acetamide] | 57 | 140 | 1700 | 4100 | 16 | 1800
6 | CC(=O)N(C(C)C)[C@H]1CC[C@H](CC(=O)Nc2cnc(-c3ccc([C@]4(N)C[C@](C)(O)C4)cc3)c(-c3ccccc3)c2)CC1 [Example 120, N-(6-(4-(trans-1-amino-3-hydroxy-3-methylcyclobutyl)phenyl)-5-phenylpyridin-3-yl)-2-(trans-4-(N-isopropylacetamido)cyclohexyl)acetamide] | 15 | 65 | 350 | 8600 | 7 | 1300
7 | COC(=O)N(C)[C@H]1CC[C@H](CC(=O)Nc2cc(-c3ccccc3)c(-c3ccc(C4(N)CCC4)cc3)cn2)CC1 [Example A61, Methyl (trans-4-(2-((5-(4-(1-aminocyclobutyl)phenyl)-4-phenylpyridin-2-yl)amino)-2-oxoethyl)cyclohexyl)(methyl)carbamate] | 910 | 1300 | > 27000 | > 30000 | 77 | > 30000
8 | CC(=O)N(C)[C@H]1CC[C@H](CC(=O)Nc2cc(-c3ccccc3)c(-c3ccc([C@]4(N)C[C@](C)(O)C4)cc3)nn2)CC1 [Example 57, N-(6-(4-(trans-1-amino-3-hydroxy-3-methylcyclobutyl)phenyl)-5-phenylpyridazin-3-yl)-2-(trans-4-(N-methylacetamido)cyclohexyl)acetamide] | 8 | 190 | 600 | 1600 | 7 | 5300
9 | CCC(=O)N(C(C)C)[C@H]1CC[C@H](CC(=O)Nc2cc(-c3ccccc3)c(-c3ccc([C@]4(N)C[C@](C)(O)C4)cc3)cn2)CC1 [Example A107, N-(trans-4-(2-((5-(4-(trans-1-amino-3-hydroxy-3-methylcyclobutyl)phenyl)-4-phenylpyridin-2-yl)amino)-2-oxoethyl)cyclohexyl)-N-isopropylpropionamide] | 76 | 230 | 2200 | 8100 | 23 | 7100
10 | CN(C(=O)C1CC1)[C@H]1CC[C@H](CC(=O)Nc2cc(-c3ccccc3)c(-c3ccc(C(C)(C)N)cc3)nn2)CC1 [Example A86, N-(trans-4-(2-((6-(4-(2-aminopropan-2-yl)phenyl)-5-phenylpyridazin-3-yl)amino)-2-oxoethyl)cyclohexyl)-N-methylcyclopropanecarboxamide] | 170 | 3900 | 8300 | > 30000 | 45 | > 21000

The next lines start with the values.

Row | IC50 (p-Akt3 in WM115 cells) [nM] | IC50 (Akt2) [nM] | IC50 (p-Akt2 in WM115 cells) [nM] | IC50 (Akt1) [nM] | IC50 (Akt3) [nM] | IC50 (p-Akt1 in LNCaP cells) [nM] | Compound
11 | 360 | > 30000 | > 28000 | > 30000 | 300 | > 30000 | CC(=O)N(C)[C@H]1CC[C@H](CC(=O)Nc2cc(-c3ccccc3)c(-c3ccc(C(C)(C)N)cc3)cn2)CC1 [Example 63, N-(5-(4-(2-aminopropan-2-yl)phenyl)-4-phenylpyridin-2-yl)-2-(trans-4-(N-methylacetamido)cyclohexyl)acetamide]
12 | 510 | 9600 | 8900 | > 30000 | 2000 | > 30000 | CN([C@H]1CC[C@H](CC(=O)Nc2cnc(-c3ccc(C(C)(C)N)cc3)c(-c3ccsc3)c2)CC1)S(C)(=O)=O [Example A24, N-(6-(4-(2-aminopropan-2-yl)phenyl)-5-(thiophen-3-yl)pyridin-3-yl)-2-(trans-4-(N-methylmethylsulfonamido)cyclo-hexyl)acetamide]
13 | 240 | 8600 | 16000 | > 30000 | 64 | > 30000 | CCC(=O)N(C)[C@H]1CC[C@H](CC(=O)Nc2cc(-c3ccsc3)c(-c3ccc(C(C)(C)N)cc3)nn2)CC1 [Example 88, N-(trans-4-(2-((6-(4-(2-aminopropan-2-yl)phenyl)-5-(thiophen-3-yl)pyridazin-3-yl)amino)-2-oxoethyl)cyclohexyl)-N-methylpropionamide]
14 | 150 | 8900 | 18000 | > 30000 | 130 | > 30000 | CC(C)(N)c1ccc(-c2nnc(NC(=O)C[C@H]3CC[C@H](N4CCOC4=O)CC3)cc2-c2ccsc2)cc1 [Example 80, N-(6-(4-(2-aminopropan-2-yl)phenyl)-5-(thiophen-3-yl)pyridazin-3-yl)-2-(trans-4-(2-oxooxazolidin-3-yl)cyclohexyl)acetamide]
15 | 230 | 5800 | 7100 | > 30000 | 70 | > 30000 | CN(C(=O)C(F)F)[C@H]1CC[C@H](CC(=O)Nc2cnc(-c3ccc(C(C)(C)N)cc3)c(-c3ccccc3)c2)CC1 [Example A7, N-(trans-4-(2-((6-(4-(2-aminopropan-2-yl)phenyl)-5-phenylpyridin-3-yl)amino)-2-oxoethyl)cyclohexyl)-2,2-difluoro-N-methylacetamide]
16 | 710 | 12000 | > 30000 | > 30000 | 220 | > 30000 | COC(=O)N(C)[C@H]1CC[C@H](CC(=O)Nc2cc(-c3ccsc3)c(-c3ccc(C(C)(C)N)cc3)nn2)CC1 [Example A69, Methyl (trans-4-(2-((6-(4-(2-aminopropan-2-yl)phenyl)-5-(thiophen-3-yl)pyridazin-3-yl)amino)-2-oxoethyl)cyclohexyl)(methyl)carbamate]

Reference: patent US10336702B2, “Pharmaceutically active compounds” (BERGENBIO ASA, priority 2015, dated 2019)
